Results on seven molecules are retold here after US20230009366A1, “Using Alternating Electric Fields at Different Frequencies to Increase Permeability of the Blood Brain Barrier and also to Provide Other Benefits” (Novocure GmbH, priority 2021, published 2023).

One series deals with human glioblastoma cells. In words: Bioluminescence substrate permeation in luciferase-expressing glioblastoma cells. The following applies: TTFields exposure. The format is cell-based.
For another series, the system named is U87-MG/eGFP-fLuc cells. In words: Reversibility of TTFields-induced uptake. It is filed as cell-based, human. The following applies: TTFields 24 h vs none vs TTFields 24 h followed by no TTFields 24 h. The procedure: To assess the reversibility of the effect of TTFields on cancer cells, U87-MG/eGFP-fLuc cells were subjected to three conditions: (1) No TTFields exposure, standard cell culture conditions (37° C., […], 5% CO2), (2) TTFields exposure for 24 h and (3) TTFields exposure for 24 h followed by no TTFields exposure for 24 h. The readouts of BLI, PpIX fluorescence (5-ALA product) and Dextran-FITC (4 kDa) fluorescence were acquired. All experimental conditions were done in triplicate. […] Here, NS=not significant; BLI=bioluminescent imaging; eGFP=enhanced green fluorescence protein; fLuc=firefly luciferase; 5-ALA=5 aminolevulinic acid; FITC=fluorescein isothiocyanate; PpIX=protoporphyrin IX; and FL=fluorescence.
In vitro tumor treating field apparatus: The coverslips were transferred to a ceramic dish of the Inovitro™ system, which in turn was mounted onto Inovitro™ base plates (Novocure Ltd., Haifa, Israel). Tumor treating fields at 200 kHz (1-4 V/cm) were applied through an Inovitro™ power generator. Incubator ambient temperatures spanned 20-27° C. with a target temperature of 37° C. in the ceramic dishes upon application of the TTFields. Duration of TTFields exposure lasted anywhere from 0.5 to 72 h, after which coverslips were removed and processed for the appropriate bioassays (see below). […]

The subject of series [1] is BBB of rat brain. Nature of the series: Evans Blue accumulation in rat brain after alternating electric fields. The format is in vivo. As to conditions: 100 kHz fields 72 h vs sham heat/control. The text has this:
A set of in vivo experiments on rats was also run to quantify the increase in vessel permeability caused by exposure to the alternating electric fields. These experiments used Evans Blue (EB) dye, which is an azo dye that has a very high affinity for serum albumin (molecule size ˜69 kDa). Because of its large molecule size, serum albumin will ordinarily not be able to get past the BBB.
This was accomplished by shaving each rat's head, positioning a first pair of capacitively coupled electrodes on the top and bottom of the rat's head, and positioning a second pair of capacitively coupled electrodes on the left and right sides of the rat's head. A 100 kHz AC voltage was then applied between the top and bottom electrodes for 1 second, followed by a 100 kHz AC voltage applied between the right and left electrodes for 1 second, in a repeating sequence.
Under the conditions indicated in Table 1 and for the times indicated on Table 1, EB was injected intravenously into the tail vein under anesthesia (Once injected, EB immediately binds to Albumin), and the EB was allowed to circulate for 2 hours in all cases. The following steps were then performed: (a) intracardiac perfusion with saline; (b) brains are sliced in four pieces with a brain slicer; (c) pieces were photographed to localize staining and weighted; (d) EB extraction after tissue homogenization with TCA 50% (1:3) and centrifuge and (e) EB quantification at 610 nm. Results are given as μg EB per g tissue.
During the experiment, two animals from group 2 and one animal from group 4 were excluded (disrupted treatment, failure to inject EB into the tail vein). There were no differences between the animals treated with alternating electric fields (groups 1 and 2) and therefore these animals were grouped together. Similarly, there were no differences between sham heat and control animals (groups 3 and 4) and therefore these animals were grouped together.
EB accumulation in these four specific sections was then measured. In addition, a computer simulation was performed to determine the field strength in each of these four sections. […]

Series [2] deals with BBB of rat brain. In words: DCE-MRI of gadolinium contrast agent accumulation in rat brain. It is filed as in vivo. As to conditions: for contrast agent accumulation in the brain tissue after recovery: 100 kHz fields 72 h followed by 96 h without fields. As for the experimental part:
Yet another set of in vivo experiments was performed using Dynamic Contrast Enhanced MRI (DCE-MRI) with intravenous injection of Gadolinium contrast agent (Gd-DTPA, Magnetol, MW 547). In these experiments, test rats were treated with 100 kHz alternating electric fields for 72 h, and control rats were not treated with alternating electric fields for the same period of time. After this 72 h period, the alternating electric field was turned off, the rats were anesthetized, and a series of 60 Tlw MRI scans (each of the scans having a duration of 28 seconds) was acquired. The gadolinium contrast agent was injected into the rat's tail vein during the 7th of these 60 scans.
The image analysis for each rat included (1) determining a baseline for each voxel by calculating the mean of the first six Tlw MRI scans for each voxel (i.e., the scans prior to the injection of the gadolinium); (2) computing voxel by voxel, the percent signal change (i.e., gadolinium accumulation) over time relative to the baseline; (3) segmenting the brain into anterior, middle, and posterior segments; (4) generating for each of the three segments the mean percent signal change with respect to the baseline over all the voxels in the respective segment and then (5) averaging 4 consecutive time points (i.e. 4 scans) together. Finally, the data from all of the rats within any given group were averaged together.
To test whether this increase in permeability of the BBB was temporary, the same test conditions were repeated, but followed with an additional 96 hours without alternating electric fields. After this 96 hour period, a series of 60 Tlw MM scans (each of the scans having a duration of 28 seconds) was acquired using the same procedure described above (including the gadolinium injection). The results of this portion of the DCE-MM experiment for each of the three segments of the brain are also depicted in FIG. 8. […] From this we can conclude that the permeability of the BBB returns to normal after the alternating electric fields are discontinued.
The relationship between the intensity of the alternating electric fields and the impact of those fields on BBB integrity and permeability was also apparent from in vivo experiments in rats using serial dynamic contrast-enhanced (DCE) MM to measure gadolinium (Gd) uptake after 100 kHz alternating electric fields were applied for 72 hours. The rat's brains were segmented into three regions (anterior, posterior, and middle), and simulations of the alternating electric fields delivery to those three regions yielded field strengths of 1.5±0.6 V/cm RMS, 2.1±1.2 V/cm RMS, and 2.7±1.7 V/cm RMS respectively. […] These findings also indicate that the cells' response to alternating electric fields depends on the intensity of the fields.

In another series the test system is GBM39/Luc cells. Nature of the series: Drug sensitivity / synergy with TTFields. The format is cell-based, human.
The test system of the next series is GBM F98 cells. In words: Paclitaxel plus alternating electric fields in orthotopic glioblastoma rats. It is filed as in vivo, rat. As for the experimental part: Another set of in vivo experiments was performed to determine whether paclitaxel (PTX, which is a drug that ordinarily cannot traverse the BBB) can make it across the BBB when the subject is treated with alternating electric fields. In one of these experiments, glioblastoma was induced in rats by injecting them orthotopically with GBM F98 cells on day 0 of the experiment. On day 6, a first set of MRI scans of each rat's brains was obtained. Alternating electric fields at 100 kHz were applied to all the rats on days 7 through 10. On day 10 (i.e., after applying the fields for 72 hours), some of the rats were injected i.p. with 25 mg/kg PTX, while other rats were not injected. Subsequently, on day 13 (i.e., 3 days post PTX administration), a second set of MRI scans of each rat's brain was obtained. Ki67 (red) and DAPI (blue) staining was evaluated for the test and control rats.
A similar experiment using a 15 mg/kg dose of PTX was performed, except that instead of quantifying the Ki67/DAPI ratio on day 13, Mill scans and post mortem tissue sections were used to determine the fold increase of the tumor volume on day 15. The tumor volumes from these experiments are depicted in FIG. 11. […] And the inventors have concluded that the alternating electric fields allow the PTX (or metabolites thereof) to cross the BBB.

The next series deals with T1, firefly luciferase (Photinus pyralis, UniProt P08659).
T1 construct: purchased Sigma Aldrich Inc (St. Louis, Mo.) SRE0045-2MG
In words: Activity of purified firefly luciferase under TTFields. It is filed as biochemical. As for the experimental part: U87-MG/eGFP-fLuc cells were seeded on Thermanox glass coverslips, allowed to settle and grow, and then subjected to either TTFields or no TTFields. […] This increase in BLI occurred as early as 30 minutes after commencement of TTFields and continued to 24 h of TTFields exposure. […] Without being bound by this theory, it is believed that the elevation in bioluminescence was not due to a direct effect of TTFields on firefly luciferase activity because exposure of purified firefly luciferase to 200 kHz TTFields led to over a 1000-fold loss in enzymatic activity 60 minutes after initiation of TTFields.
FIG. 16B depicts the effect of TTFields on eGFP fluorescence in U87-MG/eGFP-fLuc cells observed from time course of representative images (not shown) for TTFields-exposed vs. TTFields-unexposed U87-MG/eGFP-fLuc. […] More specifically, FIG. 16C depicts the effect of TTFields on the fLuc bioluminescence (fLuc-BLI) over eGFP fluorescence (eGFP-FL) ratio for U87-MG/eGFP-fLuc cells as a function of length of TTFields exposure; and FIG. 16D depicts the effect of TTFields exposure vs. non-exposure on the fLuc-BLI/eGFP-FL ratio as a function of TTFields exposure time (hours).

T1 sequence (P08659 whole entry): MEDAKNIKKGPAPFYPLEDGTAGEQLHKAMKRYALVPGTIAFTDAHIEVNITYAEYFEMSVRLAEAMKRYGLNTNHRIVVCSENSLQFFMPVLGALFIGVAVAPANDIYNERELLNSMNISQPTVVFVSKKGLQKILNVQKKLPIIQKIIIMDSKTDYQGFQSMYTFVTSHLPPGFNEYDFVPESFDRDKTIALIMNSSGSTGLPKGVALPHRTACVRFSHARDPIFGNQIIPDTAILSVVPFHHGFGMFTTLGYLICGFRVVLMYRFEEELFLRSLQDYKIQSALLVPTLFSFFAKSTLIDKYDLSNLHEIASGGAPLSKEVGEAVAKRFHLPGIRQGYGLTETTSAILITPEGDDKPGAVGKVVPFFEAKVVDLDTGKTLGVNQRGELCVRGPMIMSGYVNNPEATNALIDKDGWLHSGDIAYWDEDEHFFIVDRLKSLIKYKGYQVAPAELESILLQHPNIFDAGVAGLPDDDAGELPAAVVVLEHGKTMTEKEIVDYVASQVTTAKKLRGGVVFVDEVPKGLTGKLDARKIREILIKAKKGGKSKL
Description for human glioblastoma cells: Bioluminescence imaging: For all bioluminescence work, we used genetically-modified GBM2, GBM39 and U87-MG whereby the glioblastoma cells were transfected with lentiviral vectors that expressed either firefly luciferase (fLuc for GBM39) or a fusion protein of GFP and firefly luciferase (GFP/fLuc for GBM2 and eGFP-fLuc for U87-MG) or a Renilla luciferase-Red Fluorescence protein fusion (RLuc-RL8 for KR158B).

`O=C(O)[C@H]1CSC(c2nc3ccc(O)cc3s2)=N1` [D-luciferin]: the “permeation of luciferase substrate through the plasma membrane” value in the series on human glioblastoma cells is listed as “increased permeation”. In addition, the “reversibility of increased uptake” value with U87-MG/eGFP-fLuc cells is listed as “reversibly increase uptake”.

Turning to `Cc1cc(-c2ccc(/N=N/c3ccc4c(S(=O)(=O)O)cc(S(=O)(=O)O)c(N)c4c3O)c(C)c2)ccc1/N=N/c1ccc2c(S(=O)(=O)O)cc(S(=O)(=O)O)c(N)c2c1O` [EB, Evans Blue], in the series with BBB of rat brain [1] (EB i.v., 2 h circulation), the “EB accumulation in posterior sections (3, 4)” value was “smaller increase (that was not statistically significant)” and the “EB accumulation in sections 1, 2 (frontal cerebrum)” value is listed as “statistically significant increase”. Moreover, the “average EB accumulation in the rat brain, averaged over all four sections” value in the series with BBB of rat brain [1] (p<0.05) was “higher accumulation”.

Regarding `O=C([O-])CN(CCN(CC(=O)[O-])CC(=O)O)CCN(CC(=O)[O-])CC(=O)O.[Gd+3]` [Gd-DTPA], the “Gd accumulation in the anterior part of the brain” value with BBB of rat brain [2] (100 kHz fields 72 h) is listed as “no significant Gd accumulation”. Moreover, in the series on BBB of rat brain [2] (100 kHz fields 72 h, about 10 minutes after Gd injection, vs control rats), the “signal enhancement in the middle and posterior brains” value is recorded as “significantly increased signal enhancement”. Besides, the “contrast agent accumulation in the brain tissue after recovery” value was “no significant accumulation” in the series with BBB of rat brain [2] (listed as Gd) and “not significantly different” in the series on BBB of rat brain [2] (listed as contrast agent). Also, the “contrast agent accumulation in the brain tissue” value in the series with BBB of rat brain [2] (100 kHz fields 72 h vs control rats) is reported as “significantly higher”. Moreover, the “spatial distribution of Gd enhancement” value in the series with BBB of rat brain [2] (test rats, 20 to 23 minutes post-contrast administration) is “distributed in the whole brain”.

Regarding `CCc1c2c(nc3ccc(OC(=O)N4CCC(N5CCCCC5)CC4)cc13)-c1cc3c(c(=O)n1C2)COC(=O)[C@]3(O)CC` [Irinotecan], the “synergy of TTFields plus drug” value in the series on GBM39/Luc cells is “synergy was found”. In addition, in the series with GBM39/Luc cells (TTFields for 3 days vs no TTFields), the “sensitivity of cells to drug” value was “improves the sensitivity”.

In the case of `CC(=O)O[C@H]1C(=O)[C@@]2(C)[C@H]([C@H](OC(=O)c3ccccc3)[C@]3(O)C[C@H](OC(=O)[C@H](O)[C@@H](NC(=O)c4ccccc4)c4ccccc4)C(C)=C1C3(C)C)[C@]1(OC(C)=O)CO[C@@H]1C[C@@H]2O` [PTX, paclitaxel], in the series with GBM F98 cells (15 mg/kg PTX + 100 kHz fields vs heat only, heat+PTX, fields only, day 15), the “fold increase of the tumor volume” value is recorded as “significant decrease in the fold tumor volume increase”. Besides, in the series with GBM F98 cells (25 mg/kg PTX i.p. after 72 h 100 kHz fields vs fields only, day 13), the “Ki67/DAPI ratio (cell proliferation in the GBM tumor)” value is given as “significant decrease in cell proliferation”.

As to `Oc1ccc(Cc2nc3c(Cc4ccccc4)nc(-c4ccc(O)cc4)cn3c2O)cc1` [coelenterazine], the “permeation of luciferase substrate through the plasma membrane” value in the series with human glioblastoma cells was “increased permeation”.

Consider “firefly luciferase: purified firefly luciferase enzyme”, for which the “loss in enzymatic activity” value with firefly luciferase (200 kHz TTFields, 60 minutes after initiation) is recorded as above 1000 fold. Besides, the “activity of purified firefly luciferase” value with firefly luciferase (TTFields vs no TTFields, p<0.01) is “significantly decreased activity”.
